Test: xn = mol fraction of the nth substance listed
Details: 101 kPa, Liquid; for speed of sound: Frequency=3 MHz, Sing-around technique in a fixed-path interferometer; for mass density: Vibrating tube method

O=C1CCCN1 [2-pyrrolidinone] + CC#N
Details	mass density [kg/m3]	speed of sound [m/s]
298.15 K, x1 = 0.1025	827.196	1311.2
298.15 K, x1 = 0.1865	864.997	1337
298.15 K, x1 = 0.3069	913.434	1380.2
298.15 K, x1 = 0.3976	946.686	1414.4
298.15 K, x1 = 0.4974	979.551	1451.9
298.15 K, x1 = 0.605	1012.17	1492.9
298.15 K, x1 = 0.695	1036.85	1526.1
298.15 K, x1 = 0.7932	1061.58	1561.6
298.15 K, x1 = 0.8972	1085.63	1598.1
303.15 K, x1 = 0.1025	821.985	–
303.15 K, x1 = 0.1865	859.946	1317.8
303.15 K, x1 = 0.3069	908.581	1362.3
303.15 K, x1 = 0.3976	941.969	1396.8
303.15 K, x1 = 0.4974	974.979	1434.8
303.15 K, x1 = 0.605	1007.72	1476
303.15 K, x1 = 0.695	1032.51	1509.5
303.15 K, x1 = 0.7932	1057.33	1545.2
303.15 K, x1 = 0.8972	1081.46	1582.1
308.15 K, x1 = 0.1025	816.754	–
308.15 K, x1 = 0.1865	854.873	1298.8
308.15 K, x1 = 0.3069	903.718	1344.4
308.15 K, x1 = 0.3976	937.251	1379.3
308.15 K, x1 = 0.4974	970.394	1417.7
308.15 K, x1 = 0.695	1028.15	1492.4
308.15 K, x1 = 0.8972	1077.29	1565.9
308.16 K, x1 = 0.605	1003.27	1459.2
308.16 K, x1 = 0.7932	1053.07	1528.7
313.15 K, x1 = 0.1025	811.493	–
313.15 K, x1 = 0.1865	849.779	1280.1
313.15 K, x1 = 0.3069	898.84	1326.7
313.15 K, x1 = 0.605	998.811	1442.4
313.15 K, x1 = 0.7932	1048.82	1512.3
313.15 K, x1 = 0.8972	1073.12	1549.8
313.16 K, x1 = 0.3976	932.515	1361.9
313.16 K, x1 = 0.4974	965.8	1400.7
313.16 K, x1 = 0.695	1023.8	1475.5
318.15 K, x1 = 0.1025	806.204	–
318.15 K, x1 = 0.1865	844.673	1261.4
318.15 K, x1 = 0.3976	927.77	1344.6
318.15 K, x1 = 0.605	994.35	1425.7
318.15 K, x1 = 0.695	1019.44	1458.7
318.15 K, x1 = 0.7932	1044.56	1496.1
318.15 K, x1 = 0.8972	1068.96	1533.8
318.16 K, x1 = 0.3069	893.944	1308.8
318.16 K, x1 = 0.4974	961.2	1383.7
323.15 K, x1 = 0.8972	1064.8	1517.9
323.16 K, x1 = 0.1025	800.887	–
323.16 K, x1 = 0.1865	839.54	1242.8
323.16 K, x1 = 0.3069	889.032	1290.5
323.16 K, x1 = 0.3976	923.008	1327.3
323.16 K, x1 = 0.4974	956.587	1366.8
323.16 K, x1 = 0.605	989.88	1408.9
323.16 K, x1 = 0.695	1015.08	1441.8
323.16 K, x1 = 0.7932	1040.3	1479.9

O=C1CCCN1 [2-pyrrolidinone] + ClC(Cl)Cl
Details	mass density [kg/m3]	speed of sound [m/s]
293.15 K, x1 = 0.1002	1457.64	1033.4
293.15 K, x1 = 0.199	1424.67	1074.6
293.15 K, x1 = 0.3019	1388.18	1124.8
293.15 K, x1 = 0.4027	1351	1179
293.15 K, x1 = 0.5022	1313.31	1238.7
293.15 K, x1 = 0.697	1235.75	1374.5
293.15 K, x1 = 0.7992	1194.43	1457.3
293.15 K, x1 = 0.9	1152.99	1548.8
293.15 K, x1 = 1	1111.44	1649.3
293.16 K, x1 = 0.6054	1272.91	1307.2
295.15 K, x1 = 0.199	1421.54	–
295.15 K, x1 = 0.3019	1385.33	–
295.15 K, x1 = 0.4027	1348.4	–
295.15 K, x1 = 0.5022	1310.93	–
295.15 K, x1 = 0.6054	1270.72	–
295.15 K, x1 = 0.697	1233.71	–
295.15 K, x1 = 0.7992	1192.54	–
295.15 K, x1 = 0.9	1151.23	–
298.15 K, x1 = 0.1002	1449.07	1017.4
298.15 K, x1 = 0.199	1416.87	1059.6
298.15 K, x1 = 0.3019	1381.1	1109.8
298.15 K, x1 = 0.4027	1344.53	1164.5
298.15 K, x1 = 0.5022	1307.38	1223.7
298.15 K, x1 = 0.6054	1267.47	1292.9
298.15 K, x1 = 0.697	1230.66	1358.9
298.15 K, x1 = 1	1107.35	1632.9
298.16 K, x1 = 0.7992	1189.72	1442.2
298.16 K, x1 = 0.9	1148.6	1533.3
301.15 K, x1 = 1	1104.88	–
303.15 K, x1 = 0.1002	1440.46	1001.5
303.15 K, x1 = 0.199	1409.07	1044
303.15 K, x1 = 0.3019	1374	1094.7
303.15 K, x1 = 0.4027	1338.05	1149.5
303.15 K, x1 = 0.5022	1301.43	1208.6
303.15 K, x1 = 0.697	1225.58	1343.1
303.15 K, x1 = 0.7992	1184.99	1426.5
303.15 K, x1 = 0.9	1144.21	1517.3
303.15 K, x1 = 1	1103.26	1616.7
303.16 K, x1 = 0.6054	1262	1278.2
308.15 K, x1 = 0.1002	1431.81	985.52
308.15 K, x1 = 0.199	1401.22	1028.3
308.15 K, x1 = 0.4027	1331.55	1134.4
308.15 K, x1 = 0.5022	1295.47	1193.5
308.15 K, x1 = 0.6054	1256.52	1263.1
308.15 K, x1 = 0.697	1220.48	1327.1
308.15 K, x1 = 0.7992	1180.28	1411
308.15 K, x1 = 0.9	1139.82	1501.5
308.15 K, x1 = 1	1099.17	1600.5
308.16 K, x1 = 0.3019	1366.88	1079.5
313.15 K, x1 = 1	1095.08	1584.5
318.16 K, x1 = 1	1091	1568.6
323.16 K, x1 = 1	1086.92	1552.8

— the NIST ThermoML archive (doi:10.1021/acs.jced.5b00474)
